Values quoted from earlier work, collected in patent US5786344A, “Camptothecin drug combinations and methods with reduced side effects” (priority 1995, dated 1998).
“Also recorded” adds a separate entry of the source. Structures can show the parent of a compound that is named as a salt. Where two headings read alike, the source gives them in different places. *1 amine or outer side, *2 acyl side, *3 side chain or, on linkers, in order; H or OH if unused. Where a SMILES comes first, the peptide text is derived from it. Bridges are numbered along the chain shown (N, C = ends). Roman numbers before positions name the chains, in order. [ ]: non-standard residue; d: D form. Actinocin(9to1) = Cc1c2oc3c(C)ccc(C(=O)[*:1])c3nc-2c(C(=O)[*:2])c(N)c1=O; NMeV = CN[C@H](C(=O)O)C(C)C; Sar = CNCC(=O)O

Assays:
[1] = test system: multidrug resistant (MDR) cells; settings: cited from earlier work
[2] = cited from earlier work; for clinical toxicity: human, in vivo
p-glycoprotein [3] = settings: cited from earlier work
[4] = test system: outwardly-rectifying chloride channel; settings: 50 μM; cited from earlier work
p-glycoprotein [5] = settings: renal tubules; cited from earlier work
[6] = cited from earlier work
plasma proteins = settings: cited from earlier work
[7] = test system: breast, ovarian, non-small cell lung, colorectal, gastric and renal cell carcinomas; settings: in vitro; cited from earlier work
[8] = test system: human and murine cell lines; settings: 4-6 μM; cited from earlier work
p-glycoprotein [9] = settings: cited from earlier work; remark: listed apart in the source
p-glycoprotein [10] = settings: cited from earlier work; remark: listed apart in the source
tumors = settings: preclinical and clinical tumors; cited from earlier work
[11] = plasma/serum/terminal or elimination half-life

OCCN1CCN(CC/C=C2\c3ccccc3Sc3ccc(C(F)(F)F)cc32)CC1 [trans-flupenthixol]
reversal of drug resistance [1]: reversed cellular resistance to various drugs only in p-glycoprotein expressing cell lines; also recorded: fully reversed resistance to doxorubicin, vincristine, and colchicine
potency for reversing MDR relative to verapamil ([1]; equimolar concentrations): two- to three-fold more potent
clinical toxicity [2]: apparent lack of clinical toxicity

COc1cc2c(c(OC)c1OC)-c1ccc(OC)c(=O)cc1[C@@H](NC(C)=O)CC2 [colchicine]
inhibition of / interaction with p-glycoprotein (p-glycoprotein [3]): inhibiting p-glycoprotein; also recorded: binding to p-glycoprotein
block of chloride channel / transport associated with p-glycoprotein [4]: blocked
inhibition of p-glycoprotein-mediated transport (p-glycoprotein [5]): inhibitors
oral absorption ([6]; oral): well-absorbed

CCOC(=O)C1=C(C)NC(C)=C(C(=O)OC)C1c1cccc([N+](=O)[O-])c1 (stereo not drawn) [Nitrendipine, 3,5-Pyridinedicarboxylic acid, 1,4-dihydro-2,6-dimethyl-4-(3-nitrophenyl)-, ethyl methyl ester]
bioavailability / dose reaching the systemic circulation ([6]; human, in vivo, po): 10-22%
half-life, average or usual ([6]; human, in vivo): ~12 h
plasma protein binding (plasma proteins; plasma): About 98%

CC(C)(Oc1ccc(Cl)cc1)C(=O)O [clofibric acid]
fraction metabolized ([6]; human, in vivo): About 60%
half-life ([6]; human, in vivo): 6 to 25 h
half-life in anuria ([6]; human, in vivo): over 100 hr
half-life, average or usual ([6]; human, in vivo): 11 h
plasma protein binding (plasma proteins): bound strongly to plasma proteins

CC[C@@]1(O)C(=O)OCc2c1cc1n(c2=O)Cc2cc3c(CN(C)C)c(O)ccc3nc2-1 [topotecan]
activity in clonogenic assay [7]: exhibited activity in breast, ovarian, non-small cell lung, colorectal, gastric and renal cell carcinomas

CC/C(=C(\c1ccccc1)c1ccc(OCCN(C)C)cc1)c1ccccc1 [tamoxifen]
enhancement of intracellular concentration of cytotoxic drugs [8]: three-fold to ten-fold
bioavailability / dose reaching the systemic circulation ([6]; human, in vivo, po): 25-100%
half-life, single dose ([6]; human, in vivo): 18 h
half-life, steady state ([6]; human, in vivo): 7 h
dose-limiting toxicity ([2]; oral 150 mg/m2 twice a day): without dose-limiting toxicity

COc1cccc2c1C(=O)c1c(O)c3c(c(O)c1C2=O)C[C@@](O)(C(C)=O)C[C@@H]3O[C@H]1C[C@H](N)[C@H](O)[C@H](C)O1 [daunomycin]
inhibition of / interaction with p-glycoprotein (p-glycoprotein [3]): p-glycoprotein inhibitor
block of chloride channel / transport associated with p-glycoprotein [4]: blocked

CC[C@]1(O)C[C@@H]2CN(CCc3c([nH]c4ccccc34)[C@@](C(=O)OC)(c3cc4c(cc3OC)N(C)[C@H]3[C@@](O)(C(=O)OC)[C@H](OC(C)=O)[C@]5(CC)C=CCN6CC[C@]43[C@@H]65)C2)C1 [vinblastine]
inhibition of / interaction with p-glycoprotein (p-glycoprotein [3]): p-glycoprotein inhibitor; also recorded: interacted with p-glycoprotein
block of chloride channel / transport associated with p-glycoprotein [4]: blocked
inhibition of p-glycoprotein-mediated transport (p-glycoprotein [5]): inhibitors
plasma half-life, first phase ([6]; human, in vivo, iv): approximately 1 hours
plasma half-life, second phase ([6]; human, in vivo, iv): ~20 h
Cmax ([6]; human, in vivo): ~400 nM
excreted unchanged (urine) ([6]; human, in vivo): Approximately 15%
fecal excretion ([6]; human, in vivo): about 10%
plasma protein binding (plasma proteins): bind to plasma proteins

COc1cccc2c1C(=O)c1c(O)c3c(c(O)c1C2=O)C[C@@](O)(C(C)=O)C[C@@H]3O[C@H]1C[C@H](N)[C@H](O)[C@H](C)O1 [daunorubicin, hydrochloride]
inhibition of amphiphilic cation transport (p-glycoprotein [9]; hydrochloride): inhibited
inhibition of amphiphilic cation transport (p-glycoprotein [9]; listed as Daunorubicin, hydrochloride): inhibit
distribution half-life ([6]; human, in vivo, iv): 0.75 h
oral absorption ([6]; human, in vivo, po): Oral absorption is poor
biliary secretion ([6]; human, in vivo): ~40%
half-life [6, 11]: about 19 hr

CC(C)(C)c1ccc(C(O)CCCN2CCC(C(O)(c3ccccc3)c3ccccc3)CC2)cc1 (stereo not drawn) [Terfenadine, 1-Piperidinebutanol, α-[4-(1,1-dimethylethyl)phenyl]-4-(hydroxydiphenylmethyl)-]
drug accumulation and efflux in MDR lines ([1]; MDR lines): augments the accumulation of doxorubicin and inhibits the effluxof rhodamine 123
drug accumulation or efflux in sensitive cells ([1]; sensitive cells): no effect
peak plasma levels ([6]; human, in vivo, po): 1.5 to 4.5 ng/mL
distribution half-life ([6]; human, in vivo): 3.5 h
half-life ([6]; human, in vivo): 16 to 23 h
oral absorption ([6]; oral): absorbed rapidly and almost completely
clinical toxicity [2]: relatively low toxicity profile
plasma protein binding (plasma proteins; plasma): 97%

CSc1ccc2c(c1)N(CCC1CCCCN1C)c1ccccc1S2 (stereo not drawn) [Thioridazine, 10H-Phenothiazine, 10-[2-(1-methyl-2-piperidinyl)ethyl]-2-(methylthio)-]
half-life, early phase ([6]; human, in vivo): 4 to 10 h
half-life, late phase ([6]; human, in vivo): 26 to 36 h
plasma protein binding (plasma proteins; plasma): 96-99%

C=C[C@H]1C[N@@]2CC[C@H]1C[C@@H]2[C@@H](O)c1ccnc2ccc(OC)cc12 [quinidine]
inhibition of / interaction with p-glycoprotein (p-glycoprotein [3]): binds to p-glycoprotein and inhibits photo-labeling
inhibition of amphiphilic cation transport (p-glycoprotein [9]): inhibit
inhibition of digoxin transport (p-glycoprotein [10]): inhibited digoxin transport
oral absorption ([6]; human, in vivo, po): 90%
elimination by hepatic biotransformation ([6]; human, liver): 50-60%

CC[C@]1(O)C[C@H]2CN(CCc3c([nH]c4ccccc34)[C@@](C(=O)OC)(c3cc4c(cc3OC)N(C=O)[C@H]3[C@@](O)(C(=O)OC)[C@H](OC(C)=O)[C@]5(CC)C=CCN6CC[C@]43[C@@H]65)C2)C1 [vincristine]
inhibition of p-glycoprotein (p-glycoprotein [3]; 10 μM): 95%
inhibition of / interaction with p-glycoprotein (p-glycoprotein [3]): p-glycoprotein inhibitor
p-glycoprotein inhibition relative to comparator (p-glycoprotein [3]; vs verapamil, cyclosporine A, progesterone or anthracycline analogues): more potent than anthracycline analogues
oral absorption ([6]; oral): Unpredictable absorption
half-life ([6]; plasma or terminal half-life): about 24 hours
Cmax ([6]; read-out: peak concentration in plasma, usual clinical doses): ~400 nM
plasma protein binding (plasma proteins): bind to plasma proteins

CC(=O)O[C@H]1C(=O)[C@@]2(C)[C@H]([C@H](OC(=O)c3ccccc3)[C@]3(O)C[C@H](OC(=O)[C@H](O)[C@@H](NC(=O)c4ccccc4)c4ccccc4)C(C)=C1C3(C)C)[C@]1(OC(C)=O)CO[C@@H]1C[C@@H]2O [taxol]
inhibition of / interaction with p-glycoprotein (p-glycoprotein [3]): interacted with p-glycoprotein
antitumor activity (tumors): activity against malignant melanoma and carcinoma of the ovary

COC(=O)[C@H]1[C@H]2C[C@@H]3c4[nH]c5cc(OC)ccc5c4CCN3C[C@H]2C[C@@H](OC(=O)c2cc(OC)c(OC)c(OC)c2)[C@@H]1OC [reserpine, Yohimban-16-carboxylic acid, 11,17-dimethoxy-18-[(3,4,5-trimethoxybenzoyl)oxy]-, methyl ester, (3β,16β,17α,18β,20α)-]
inhibition of / interaction with p-glycoprotein (p-glycoprotein [3]): binds to p-glycoprotein and inhibits photo-labeling
inhibition of photoaffinity labeling of p-glycoprotein (p-glycoprotein [3]; photolabeling): showed inhibition
inhibition of digoxin transport (p-glycoprotein [10]): inhibited
oral absorption ([6]; human, in vivo, po): absorbed poorly and erratically
persistence of effects after discontinuation ([2]; oral): ≤ 4 weeks

CC/C(=C(\c1ccccc1)c1ccc(OCCNC)cc1)c1ccccc1 [N-desmethyltamoxifen]
enhancement of intracellular concentration of cytotoxic drugs [8]: three-fold to ten-fold
concentration ([6]; read-out: plasma level, oral tamoxifen 150 mg/m2 twice a day after 400 mg/m2 loading dose): 6000 nM

CC[C@@]1(O)C(=O)OCc2c1cc1n(c2=O)Cc2cc3c(N)cccc3nc2-1 [9-AC, 9-amino-20(s)-camptothecin]
antitumor activity (tumors): significant activity of 9-AC against colon cancer

Cc1c2oc3c(C)ccc(C(=O)N[C@@H]4C(=O)N[C@H](C(C)C)C(=O)N5CCC[C@H]5C(=O)N(C)CC(=O)N(C)[C@@H](C(C)C)C(=O)O[C@@H]4C)c3nc-2c(C(=O)N[C@@H]2C(=O)N[C@H](C(C)C)C(=O)N3CCC[C@H]3C(=O)N(C)CC(=O)N(C)[C@@H](C(C)C)C(=O)O[C@@H]2C)c(N)c1=O [actinomycin D] (I: T[dV]P[Sar][NMeV] / II: T[dV]P[Sar][NMeV]; ester I:1-I:C, II:1-II:C; linker I:N-II:N via Actinocin(9to1))
inhibition of / interaction with p-glycoprotein (p-glycoprotein [3]): inhibitor of p-glycoprotein
inhibition of p-glycoprotein-mediated transport (p-glycoprotein [5]): inhibitors
CNS / blood-brain barrier penetration ([6]; human, in vivo): does not pass the blood-brain barrier
excreted intact into the bile ([6]; human, in vivo): Half of the dose
urinary excretion ([6]; human, in vivo): 10%
half-life [6, 11]: about 36 hr

CC(C)NCC(O)COc1cccc2ccccc12 (stereo not drawn) [Propranolol]
reversal of drug resistance [1]: partially reverse drug resistance
bioavailability / dose reaching the systemic circulation ([6]; human, in vivo, po): about 25%
inter-individual variability in plasma concentrations ([6]; human, in vivo, po): approximately 20 fold
CNS / blood-brain barrier penetration ([6]; human, in vivo): readily enters the CNS
volume of distribution ([6]; human, in vivo): 4 L/kg
oral absorption ([6]; oral): almost complete absorbed
plasma protein binding (plasma proteins; plasma): Approximately 90%

COc1ccc([C@@H]2Sc3ccccc3N(CCN(C)C)C(=O)[C@@H]2OC(C)=O)cc1 [Diltiazem, benzothiazepin-4(5H)-one, 3-(acetyloxy)-5-[2-(dimethylamino)ethyl]-2,3-dihydro-2-(4-methoxyphenyl)-,(+) -cis-, monohydrochloride]
inhibition of / interaction with p-glycoprotein (p-glycoprotein [3]): p-glycoprotein inhibitor
bioavailability / dose reaching the systemic circulation ([6]; human, in vivo, po): 40-60%
oral absorption ([6]; human, in vivo, po): 80%
excreted unchanged (urine) ([6]; human, in vivo): Less than 4%
half-life ([6]; human, in vivo): about 4 hr
plasma protein binding (plasma proteins; plasma): 70-80%
